Measured values reported in US20060069132A1, “Azolecarboxamide herbicides” (priority 2004, published 2006).
Like-named read-outs stand apart in the source and are kept apart here.

Tests used:
ducksalad = test: Test B flooded paddy test; type: in vivo, Heteranthera limosa; conditions: 1000 g ai/ha, scale 0 to 100 (0 no effect, 100 complete control)
How it was run: (§1)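 Treated at 2-leaf (paddy) or 1–4-leaf, 2–18 cm (postemergence); greenhouse 13–15 d; visual score vs control, 0 none to 100 complete control; dash = not tested.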

barnyardgrass [1] = test: Test B flooded paddy test; type: in vivo, Echinochloa crus-galli; conditions: 1000 g ai/ha, scale 0 to 100 (0 no effect, 100 complete control)
How it was run: as §1

rice = test: Test B flooded paddy test; type: in vivo, Oryza sativa; conditions: 1000 g ai/ha, scale 0 to 100 (0 no effect, 100 complete control)
How it was run: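 Paddy species grown to the 2-leaf stage under flooding; blackgrass sprayed postemergence at 2–18 cm (1- to 4-leaf stage). Plants kept in a greenhouse for 13 to 15 days, then visually rated against controls on 0 (no effect) to 100 (complete control).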

blackgrass = test: Test B postemergence herbicide test; type: in vivo, Alopecurus myosuroides
How it was run: as §1

Surinam grass = test: Test B pre-/postemergence herbicide test; type: in vivo, Urochloa decumbens; conditions: for pest or weed control at 125 g/ha / pest or weed control at 500 g/ha: Urochloa decumbens; for pest or weed control at 125 g/ha: 125 g ai/ha; for pest or weed control at 500 g/ha: 500 g ai/ha
How it was run: (§2)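 Test chemicals in a non-phytotoxic solvent mixture with surfactant were applied preemergence to seeded species and postemergence to plants 2-18 cm tall (1- to 4-leaf stage); rice and barnyardgrass were also tested in a flooded paddy at the 2-leaf stage. Visual rating versus controls after 13-15 days in greenhouse, scale 0 (no effect) to 100 (complete control).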

wild oat = test: Test B postemergence herbicide test; type: in vivo, Avena fatua
How it was run: (§3)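 Plants grow to 1- to 4-leaf stage (2–18 cm) for postemergence spraying, or to 2-leaf stage for the paddy test. Formulated compound is applied. Greenhouse holding lasts 13–15 days. Response is scored visually relative to controls, 0 no effect to 100 complete control; a dash means no result.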

pigweed = test: Test B pre-/postemergence herbicide test; type: in vivo, Amaranthus retroflexus
How it was run: as §2

morningglory = test: Test B pre-/postemergence herbicide test; type: in vivo, Ipomoea coccinea; conditions: for pest or weed control at 125 g/ha / pest or weed control at 500 g/ha: Ipomoea, 336 h; for pest or weed control at 125 g/ha: 125 g ai/ha; for pest or weed control at 500 g/ha: 500 g ai/ha
How it was run: (§4)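 Herbicidal effect was judged by eye on a 0–100 scale after plants stood 13 to 15 days in the greenhouse following pre- or postemergence treatment with surfactant-containing formulations.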

velvetleaf = test: Test B pre-/postemergence herbicide test; type: in vivo, Abutilon theophrasti; conditions: for pest or weed control at 125 g/ha / pest or weed control at 500 g/ha: Abutilon theophrasti, 336 h; for pest or weed control at 125 g/ha: 125 g ai/ha; for pest or weed control at 500 g/ha: 500 g ai/ha
How it was run: as §2

[2] = test system: small flower umbrella sedge; test: Test B flooded paddy test; type: in vivo, Cyperus difformis; conditions: 1000 g ai/ha, scale 0 to 100 (0 no effect, 100 complete control)
How it was run: as §1

lambsquarters = test: Test B pre-/postemergence herbicide test; type: in vivo, Chenopodium album; conditions: for pest or weed control at 125 g/ha: 125 g ai/ha
How it was run: as §2

cocklebur = test: Test B pre-/postemergence herbicide test; type: in vivo, Xanthium strumarium; conditions: for pest or weed control at 125 g/ha / pest or weed control at 500 g/ha: Xanthium strumarium; for pest or weed control at 125 g/ha: 125 g ai/ha; for pest or weed control at 500 g/ha: 500 g ai/ha
How it was run: as §4

giant foxtail = test: Test B pre-/postemergence herbicide test; type: in vivo, Setaria faberi; conditions: for pest or weed control at 125 g/ha / pest or weed control at 500 g/ha: Setaria faberi, 336 h; for pest or weed control at 125 g/ha: 125 g ai/ha; for pest or weed control at 500 g/ha: 500 g ai/ha
How it was run: as §2

wheat = test: Test B postemergence herbicide test; type: in vivo, Triticum aestivum; set-up: key to Wheat plant response rating: 0 = no effect, 100 = complete control
How it was run: as §3

barnyardgrass [3] = test: Test B pre-/postemergence herbicide test; type: in vivo, Echinochloa crus-galli; conditions: for pest or weed control at 125 g/ha / pest or weed control at 500 g/ha: Echinochloa crus-galli; for pest or weed control at 125 g/ha: 125 g ai/ha; for pest or weed control at 500 g/ha: 500 g ai/ha
How it was run: as §4

[4] = post-emergence, postemergence, visual rating, scale 0 (no effect) to 100 (complete control), read-out: Cocklebur plant response rating
[5] = post-emergence, postemergence, visual rating, scale 0 (no effect) to 100 (complete control), read-out: Barnyardgrass plant response rating
[6] = Postemergence, 250 g ai/ha, scale 0 (no effect) to 100 (complete control)
[7] = postemergence, 62 g ai/ha, scale 0 to 100

SMILES: CCOC(=O)c1ccc(F)c(NC(=O)C2CC(C(C)(C)C)=NN2CC)c1 (stereo not drawn) [Compound 267, ethyl 3-[[[3-(1,1-dimethylethyl)-1-ethyl-4,5-dihydro-1H-pyrazol-5-yl]carbonyl]amino]-4-fluorobenzoate]
- pest or weed control at 1000 g/ha (ducksalad; Heteranthera limosa, 336 h, read-out: Ducksalad plant response rating): 0%
- pest or weed control at 1000 g/ha (barnyardgrass [1]; Echinochloa crus-galli, 336 h, read-out: Barnyardgrass plant response rating): 60%
- plant injury at 1000 g/ha (rice; Oryza sativa, 336 h, read-out: Rice plant response rating): 70%
- pest or weed control at 125 g/ha (blackgrass; Alopecurus myosuroides, post-emergence, 336 h, postemergence, 125 g ai/ha, visual rating, scale 0 (no effect) to 100 (complete control), read-out: Blackgrass plant response rating): 20%
- pest or weed control at 500 g/ha (blackgrass; Alopecurus myosuroides, post-emergence, 336 h, postemergence, 500 g ai/ha, visual rating, scale 0 (no effect) to 100 (complete control), read-out: Blackgrass plant response rating): 40%
- pest or weed control at 125 g/ha (Surinam grass; post-emergence, postemergence, visual rating, scale 0 (no effect) to 100 (complete control), read-out: Surinam Grass plant response rating): 30%
- pest or weed control at 500 g/ha (Surinam grass; post-emergence, postemergence, scale 0 to 100, 0 is no effect, 100 is complete control, read-out: Surinam Grass plant response rating): 50%
- pest or weed control at 125 g/ha (Surinam grass; pre-emergence, 0 = no effect, 100 = complete control, read-out: Surinam Grass plant response rating (0 to 100 scale)): 10%
- pest or weed control at 500 g/ha (Surinam grass; pre-emergence, visual rating, 0 = no effect, 100 = complete control, read-out: Plant response rating, Surinam Grass): 50%
- pest or weed control at 125 g/ha (wild oat; Avena fatua, post-emergence, 336 h, postemergence, 125 g ai/ha, visual rating, scale 0 (no effect) to 100 (complete control), read-out: Oat, Wild plant response rating): 30%
- pest or weed control at 500 g/ha (wild oat; Avena fatua, post-emergence, 336 h, postemergence, 500 g ai/ha, scale 0 to 100, 0 is no effect, 100 is complete control, read-out: Oat, Wild plant response rating): 40%
- pest or weed control at 125 g/ha (pigweed; Amaranthus retroflexus, post-emergence, 336 h, postemergence, 125 g ai/ha, visual rating, scale 0 (no effect) to 100 (complete control), read-out: Pigweed plant response rating): 60%
- pest or weed control at 500 g/ha (pigweed; Amaranthus retroflexus, post-emergence, 336 h, postemergence, 500 g ai/ha, scale 0 to 100, 0 is no effect, 100 is complete control, read-out: Pigweed plant response rating): 90%
- pest or weed control at 125 g/ha (morningglory; post-emergence, postemergence, visual rating, scale 0 (no effect) to 100 (complete control), read-out: Morningglory plant response rating): 30%
- pest or weed control at 500 g/ha (morningglory; post-emergence, postemergence, scale 0 to 100, 0 is no effect, 100 is complete control, read-out: Morningglory plant response rating): 40%
- pest or weed control at 125 g/ha (morningglory; pre-emergence, 0 = no effect, 100 = complete control, read-out: Morningglory plant response rating (0 to 100 scale)): 20%
- pest or weed control at 500 g/ha (morningglory; pre-emergence, visual rating, 0 = no effect, 100 = complete control, read-out: Plant response rating, Morningglory): 30%
- pest or weed control at 125 g/ha (velvetleaf; post-emergence, postemergence, visual rating, scale 0 (no effect) to 100 (complete control), read-out: Velvetleaf plant response rating): 50%
- pest or weed control at 500 g/ha (velvetleaf; post-emergence, postemergence, scale 0 to 100, 0 is no effect, 100 is complete control, read-out: Velvetleaf plant response rating): 70%
- pest or weed control at 125 g/ha (velvetleaf; pre-emergence, 0 = no effect, 100 = complete control, read-out: Velvetleaf plant response rating (0 to 100 scale)): 20%
- pest or weed control at 500 g/ha (velvetleaf; pre-emergence, visual rating, 0 = no effect, 100 = complete control, read-out: Plant response rating, Velvetleaf): 50%
- pest or weed control at 1000 g/ha ([2]; Cyperus difformis, 336 h, read-out: Sedge, Umbrella plant response rating): 70%
- pest or weed control at 125 g/ha (lambsquarters; Chenopodium album, post-emergence, 336 h, postemergence, visual rating, scale 0 (no effect) to 100 (complete control), read-out: Lambsquarters plant response rating): 30%
- pest or weed control at 500 g/ha (lambsquarters; Chenopodium album, post-emergence, 336 h, postemergence, 500 g ai/ha, scale 0 to 100, 0 is no effect, 100 is complete control, read-out: Lambsquarters plant response rating): 50%
- pest or weed control at 125 g/ha (lambsquarters; Chenopodium album, pre-emergence, 336 h, 0 = no effect, 100 = complete control, read-out: Lambsquarters plant response rating (0 to 100 scale)): 0%
- pest or weed control at 125 g/ha (cocklebur; [4]): 30%
- pest or weed control at 500 g/ha (cocklebur; [4]): 90%
- pest or weed control at 125 g/ha (cocklebur; pre-emergence, 0 = no effect, 100 = complete control, read-out: Cocklebur plant response rating (0 to 100 scale)): 0%
- pest or weed control at 500 g/ha (cocklebur; pre-emergence, visual rating, 0 = no effect, 100 = complete control, read-out: Plant response rating, Cocklebur): 0%
- pest or weed control at 125 g/ha (giant foxtail; post-emergence, postemergence, visual rating, scale 0 (no effect) to 100 (complete control), read-out: Foxtail, Giant plant response rating): 40%
- pest or weed control at 500 g/ha (giant foxtail; post-emergence, postemergence, scale 0 to 100, 0 is no effect, 100 is complete control, read-out: Foxtail, Giant plant response rating): 50%
- pest or weed control at 125 g/ha (giant foxtail; pre-emergence, 0 = no effect, 100 = complete control, read-out: Foxtail, Giant plant response rating (0 to 100 scale)): 30%
- pest or weed control at 500 g/ha (giant foxtail; pre-emergence, visual rating, 0 = no effect, 100 = complete control, read-out: Plant response rating, Foxtail, Giant): 80%
- plant injury at 125 g/ha (wheat; Triticum aestivum, post-emergence, 336 h, postemergence, 125 g ai/ha, visual rating, scale 0 (no effect) to 100 (complete control), read-out: Wheat plant response rating): 20%
- plant injury at 500 g/ha (wheat; Triticum aestivum, post-emergence, 336 h, postemergence, 500 g ai/ha, scale 0 to 100, 0 is no effect, 100 is complete control, read-out: Wheat plant response rating): 30%
- pest or weed control at 125 g/ha (barnyardgrass [3]; [5]): 40%
- pest or weed control at 500 g/ha (barnyardgrass [3]; [5]): 90%
- pest or weed control at 125 g/ha (barnyardgrass [3]; pre-emergence, 0 = no effect, 100 = complete control, read-out: Barnyardgrass plant response rating (0 to 100 scale)): 20%
- pest or weed control at 500 g/ha (barnyardgrass [3]; pre-emergence, visual rating, 0 = no effect, 100 = complete control, read-out: Plant response rating, Barnyardgrass): 70%

SMILES: CCNC(=O)c1ccnc(NC(=O)c2cc(C(C)(C)C)nn2CC)c1 [Compound 152]
- Ducksalad plant response rating (ducksalad; visual rating, 13 to 15 days): 80
- Barnyardgrass plant response rating (barnyardgrass [1]; visual rating, 13 to 15 days): 80
- Rice plant response rating (rice; visual rating, 13 to 15 days): 70
- Blackgrass plant response rating (blackgrass; [6]): 20
- Blackgrass plant response rating (blackgrass; [7]): 20
- Surinam Grass plant response rating (Surinam grass; [6]): 40
- Surinam Grass plant response rating (Surinam grass; [7]): 30
- Oat, Wild plant response rating (wild oat; [6]): 20
- Oat, Wild plant response rating (wild oat; [7]): 10
- Pigweed plant response rating (pigweed; [6]): 90
- Pigweed plant response rating (pigweed; [7]): 50
- Morningglory plant response rating (morningglory; [6]): 60
- Morningglory plant response rating (morningglory; [7]): 50
- Velvetleaf plant response rating (velvetleaf; [6]): 50
- Velvetleaf plant response rating (velvetleaf; [7]): 50
- Sedge, Umbrella plant response rating ([2]; visual rating, 13 to 15 days): 90
- Lambsquarters plant response rating (lambsquarters; [6]): 80
- Lambsquarters plant response rating (lambsquarters; [7]): 70
- Cocklebur plant response rating (cocklebur; [6]): 90
- Cocklebur plant response rating (cocklebur; [7]): 60
- Foxtail, Giant plant response rating (giant foxtail; [6]): 20
- Foxtail, Giant plant response rating (giant foxtail; [7]): 10
- Wheat plant response rating (wheat; 250 g ai/ha, scale 0 to 100, 0 no effect, 100 complete control, preemergence): 100
- Wheat plant response rating (wheat; [6]): 10
- Wheat plant response rating (wheat; [7]): 10
- Barnyardgrass plant response rating (barnyardgrass [3]; [6]): 40
- Barnyardgrass plant response rating (barnyardgrass [3]; [7]): 30
